Measurements taken from ChEMBL document CHEMBL4196134, “Enantiomeric Pairs of Meroterpenoids with Diverse Heterocyclic Systems from Rhododendron nyingchiense” (J Nat Prod, 2018).
pIC50: −log10 of the molar value.

Target: T1, Tyrosine-protein phosphatase non-receptor type 1 (Homo sapiens, UniProt P18031)
T1 sequence (P18031 whole entry): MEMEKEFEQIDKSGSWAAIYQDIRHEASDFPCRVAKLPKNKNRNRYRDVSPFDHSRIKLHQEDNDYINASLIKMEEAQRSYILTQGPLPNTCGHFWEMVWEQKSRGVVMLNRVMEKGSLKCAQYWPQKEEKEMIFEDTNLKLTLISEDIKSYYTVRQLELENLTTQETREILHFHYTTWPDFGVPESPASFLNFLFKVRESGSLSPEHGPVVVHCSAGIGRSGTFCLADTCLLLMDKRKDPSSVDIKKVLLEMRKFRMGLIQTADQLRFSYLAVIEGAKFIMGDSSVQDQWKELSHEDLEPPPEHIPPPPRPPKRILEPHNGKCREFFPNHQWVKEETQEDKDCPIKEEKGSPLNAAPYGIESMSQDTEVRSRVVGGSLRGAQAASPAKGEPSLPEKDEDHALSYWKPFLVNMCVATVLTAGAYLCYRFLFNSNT
Assay: Inhibition of recombinant human PTP1B catalytic domain ([…]) expressed in Escherichia coli BL21-codon plus (DE3) using pNPP as substrate measured continuously for 3 mins by colorimetric method

SMILES	pIC50
Cc1cc(O)cc2c1O[C@H]1OC(C)(C)[C@@H]3CC[C@@](C)(O2)[C@@H]13	4.36
CC1=CC(=O)C=C2O[C@@]3(C)CC[C@H](C(C)(C)O)[C@H]3[C@H]3O[C@@]123	4.42
C=C(C)[C@H]1CC[C@@]2(C)Oc3cc(O)cc(C)c3[C@@H]1[C@@H]2O	4.54
C=C(C)[C@@H]1CC[C@]2(C)Oc3cc(O)cc(C)c3C[C@H]12	4.21

The next lines start with the values.

pIC50	SMILES
4.24	Cc1cc(O)cc2c1[C@H]1[C@@H]3[C@@H](CC[C@]3(C)O2)C1(C)C
5.24	CC(C)=CCC/C(C)=C/CC/C(C)=C/Cc1c(O)cc(C)cc1O [GRIFOLIN]
4.32	C=C(C)[C@@H]1CC[C@]2(C)Oc3cc(O)cc(C)c3[C@H]1[C@H]2O
